Measured values as given in patent US9981956B2, “Small molecule inhibitors of fibrosis” (THE CALIFORNIA INSTITUTE FOR BIOMEDICAL RESEARCH, priority 2013, dated 2018).
Converted amounts (≈) assume the structure as drawn. “And” between values parts separate entries of the source, which are not always exact repeats. Equal values may be shown once. Read-outs that look alike come from different tables or passages of the source.

Experiments:
[1] = system: fibroblast to myofibroblast transdifferentiation (primary human lung fibroblasts and primary rodent HSCs); assay: High content imaging and western based assay of fibroblast to myofibroblast transdifferentiation (α-SMA); type: cell-based; settings: graded, TGF-β induced fibroblast to myofibroblast transdifferentiation
Excerpt: A high content imaging assay, based on α-SMA staining and cell morphological changes associated with fibroblast to myofibroblast transdifferentiation, was established using primary human lung fibroblasts and primary rodent HSCs. Conditions, involving serum starvation and subsequent TGF-β treatment, were identified that facilitate robust in vitro transdifferentiation in a miniaturized (384 well plate) format that is amenable to high throughput small molecule screening. A selective ALK-5 TGF-β1 receptor inhibitor (SB-431542) was used as a positive control. […] This assay was used to identify a hit compound (itraconazole) and was used to evaluate focused panels of itraconazole analogues generated from medicinal chemistry efforts.
The activity of Itraconazole and its analogues was confirmed by analyzing changes in gene expression of multiple genes associated with fibroblast to myofibroblast transdifferentiation using biochemical methods (i.e., Western blot and RT-PCR). These 4-day assays were used to evaluate sets of 6 compounds at a time in 4-point dose response fashion.
After 24 hour incubation, cells were treated with the indicated doses of itraconazole for 48 hours in the presence of 10 ng/mL of TGF-β1 in hepatic stellate medium. Following fixation and staining with an anti smooth muscle actin antibody, cell morphology was analyzed with a Cellomics cell insight imaging reader (FIG. 1 for representative images). Cells were analyzed for mean cellular area of a-SMA staining (FIG. 5a) or mean fluorescence intensity of SMA staining (FIG. 5b).
After 24 incubation, medium was changed to assay medium containing TGF-β1 (10 ng/mL) and simultaneously treated with itraconazole (10 μM), SB431542 (10 μM) or vehicle control (FIG. 6).

Cyp3A4 = Cyp3A4 (Homo sapiens, UniProt P08684); assay: Cyp reversible inhibition assay (human liver microsomes)
Description: The purpose of this assay was to determine reversible inhibition of Cyp enzyme with a given compound using a substrate probe turnover as the surrogate for inhibition. This was done with human liver microsomes rather an isolated enzyme to account for metabolites of parent drug leading to a potential drug-drug interaction through Cyp inhibition. The substrate turnover (for example conversion of midazolam to hydroxyl midazolam) was monitored by LCMSMS (Q1/Q2=342.2/203.2). Test compounds were tested in a 7-point dose response curve starting from 50 μM to 50 nM (˜3-fold dilution series).
The detailed protocol was as follows: • Prepared test compounds and standard inhibitors working solution (100×) • Pulled microsomes out of the −80° C. freezer to thaw on ice, labeled with the date and put back to freezer immediately after using. • Added 20 μL of the substrate solutions to corresponding wells. • Added 20 μL PB to Blank wells. • Added 2 μL of the test compounds and positive control working solution to corresponding wells. • Added 2 μL MeOH to No Inhibitor wells and Blank wells. • Prepared HLM working solution. • Added 158 μL of the HLM working solution to all wells of incubation plate. • Pre-warmed the plate for about 10 min at 37° C. water bath. • Prepared NADPH cofactor solution. • Added 20 μL NADPH cofactor to all incubation wells. • Mixed and incubated for 10 minutes at 37° C. water bath. • At the time point, terminated the reaction by adding 400 μL cold stop solution (200 ng/mL Tolbutamide in ACN). • Centrifuged the samples at 4000 rpm for 20 minutes to precipitate protein. • Transferred 200 μL supernatant to 200 μL HPLC water and shook for 10 min. • Analyzed samples by LC/MS/MS.

[2] = system: Candida albicans (ATCC 10231); assay: Candida albicans anti-fungal MIC potency determination; type: cell-based
Description: The wild type Candida albicans (ATCC 10231) was used and Fluconazole, amphotericin B, itraconazole and terbinafine were purchased from Sigma and used as positive controls.
The highest assay concentration for all test compounds and fluconazole was 100 μM. Fluconazole was also tested at the highest concentration of 64 μg/ml, and amphotercin B and terbinafine at 16 and 64 μg/ml. The test compounds were in DMSO stock solution at a concentration of 10 mM. Two stock solutions in DMSO were prepared for fluconazole at 10 mM and 6.4 mg/ml. Amphotericin B and terbinafine stock solutions in DMSO were prepared at 1.6 and 6.4 mg/ml.
Serial dilution of 100× stock solutions: 4 μl of stock solution was added into 196 μl of RPMI1640 (MOPS buffered and free of HEPES and sodium bicarbonate) in the first well of a row of a sterile u-bottom 96-well plate. The rest of the wells was filled with 100 μl RPMI1640. The 2-fold serial dilution was made sequentially by transferring 100 μl solution to the next well and mixing by pipetting, until 11th well. The extra 100 μl in 11th well was discarded. Therefore, the compound wells contained 100 μl of 2× of testing concentrations of drugs in RPMI1640. The 12th well was filled with only 100 μl RPMI1640.
C. albicans 3147 (ATCC 10231) glycerol frozen stock was streaked on Sabouraud dextrose agar (SDA). The plate was incubated at 35° C. ambient atmosphere for 20 h. Single colonies were suspended into sterile saline until turbidity reached 0.1 (1-5×10^6 CFU/ml) using a Siemens turbidity meter. This suspension was diluted 50× in RPMI1640 in a 15 ml conical, and then it was further diluted 20× in RPMI1640 in a 50 ml conical. This gave 1-5×10^3 CFU/ml suspension and was used as inoculum. The cell density in inoculum was plate-counted to be 4.94×10^3 CFU/ml.
The plates were incubated at 35° C. in ambient atmosphere. The photos were taken at 24 h and 48 h. The MIC end points for fluconazole and amphotericin B were read according to the M27-A3 protocol (Reference Method for Broth Dilution Antifungal Susceptibility Testing of Yeasts; Approved Standard-Third Edition, M27-A3 standard published Jan. 1, 2008 by Clinical and Laboratory Standards Institute). The MIC for compounds for test cmpds and terbinafine (not mentioned in M27-A3 protcol) were read as if they were azoles.

[3] = Cyp 3A4 testosterone LCMS IC50, human liver microsomes, substrate testosterone
[4] = Cyp 3A4 midazolam LCMS IC50, human liver microsomes, substrate midazolam
[5] = ATCC10231, 24 h, read-out: C. Albicans MIC90 at 24 h
[6] = ATCC10231, 48 h, read-out: C. Albicans MIC90 at 48 h

Cyp3A4, sequence (P08684 whole entry): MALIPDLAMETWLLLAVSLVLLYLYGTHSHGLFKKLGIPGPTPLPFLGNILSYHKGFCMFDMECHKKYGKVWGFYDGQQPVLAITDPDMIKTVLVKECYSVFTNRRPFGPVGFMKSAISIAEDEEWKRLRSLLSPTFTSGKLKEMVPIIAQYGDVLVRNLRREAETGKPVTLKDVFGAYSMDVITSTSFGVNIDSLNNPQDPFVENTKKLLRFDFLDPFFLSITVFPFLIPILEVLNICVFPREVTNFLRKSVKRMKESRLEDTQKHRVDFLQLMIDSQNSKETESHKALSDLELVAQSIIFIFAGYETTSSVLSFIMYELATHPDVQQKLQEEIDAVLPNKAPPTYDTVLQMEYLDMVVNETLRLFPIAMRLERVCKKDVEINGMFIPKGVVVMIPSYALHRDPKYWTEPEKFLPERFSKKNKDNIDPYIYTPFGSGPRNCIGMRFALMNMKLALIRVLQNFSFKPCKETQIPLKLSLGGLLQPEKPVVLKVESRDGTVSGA

Row | Structure (SMILES) | EC50 [1] | IC50 (Cyp3A4; [3]) | IC50 (Cyp3A4; [4]) | MIC90 [2, 5] | MIC90 [2, 6]
1 | CCC(C)n1cnn(-c2ccc(N3CCN(c4ccc(OC[C@@H]5CO[C@@](Cn6cncn6)(c6ccc(F)cc6F)O5)cc4)CC3)cc2)c1=O (mixture of isomers) [Compound 1] | 0.5 to 5 µM | 4.5 µM |  |  | 
2 | CCC(C)n1cnn(-c2ccc(N3CCN(c4ccc(OC[C@@H]5CO[C@@](Cn6ccnn6)(c6ccc(F)cc6F)O5)cc4)CC3)cc2)c1=O (stereo partly shown) [Compound 2] | 0.5 to 5 µM | > 30 µM |  |  | 
3 | CCC(C)n1ncn(-c2ccc(N3CCN(c4ccc(OC[C@@H]5CO[C@@](Cn6ccnc6)(c6ccc(Cl)cc6Cl)O5)cc4)CC3)cc2)c1=O (stereo partly shown) [Compound 19] | 0.5 to 5 µM | 0.0069 µM | 0.0031 µM | 0.195 µM (≈ 0.137 µg/mL) | 0.195 µM (≈ 0.137 µg/mL)
4 | CCC(C)n1ncn(-c2ccc(N3CCN(c4ccc(OC[C@@H]5CO[C@@](Cc6cncnc6)(c6ccc(Cl)cc6Cl)O5)cc4)CC3)cc2)c1=O (stereo partly shown) [Compound 21] | 0.5 to 5 µM | 0.12 µM | 0.144 µM | > 100 µM | > 100 µM
5 | CCC(C)n1ncn(-c2ccc(N3CCN(c4ccc(OC[C@@H]5CO[C@@](Cc6ccncc6)(c6ccc(Cl)cc6Cl)O5)cc4)CC3)cc2)c1=O (stereo partly shown) [Compound 23] | < 0.5 µM |  | 0.321 µM | > 100 µM | > 100 µM
6 | CCC(C)n1ncn(-c2ccc(N3CCN(c4ccc(OC[C@@H]5CO[C@@](Cn6nccn6)(c6ccc(Cl)cc6Cl)O5)cc4)CC3)nc2)c1=O (stereo partly shown) [Compound 24] | 0.5 to 5 µM | > 30 µM |  |  | 
7 | CCC(C)n1ncn(-c2ccc(N3CCN(c4ccc(OC[C@@H]5CO[C@@](Cc6cccnc6)(c6ccc(Cl)cc6Cl)O5)cc4)CC3)cc2)c1=O (stereo partly shown) [Compound 26] | 0.5 to 5 µM | 0.283 µM | 0.18 µM | > 100 µM | > 100 µM
8 | CCC(C)n1ncn(-c2ccc(N3CCN(c4ccc(OC[C@@H]5CO[C@@](Cn6cccn6)(c6ccc(Cl)cc6Cl)O5)cc4)CC3)cc2)c1=O (stereo partly shown) [Compound 27] | 5 to 30 µM | > 50 µM | > 50 µM | > 100 µM | > 100 µM
9 | CCC(C)n1ncn(-c2ccc(N3CCN(c4ccc(OC[C@@H]5CO[C@@](Cn6nccn6)(c6ccc(Cl)cc6)O5)cc4)CC3)cc2)c1=O (stereo partly shown) [Compound 30] | 0.5 to 5 µM | > 50 µM | > 50 µM | > 100 µM | > 100 µM
10 | CCC(C)n1ncn(-c2ccc(N3CCN(c4ccc(OC[C@@H]5CO[C@@](Cn6nccn6)(c6ccccc6Cl)O5)cc4)CC3)cc2)c1=O (stereo partly shown) [Compound 32] | 5 to 30 µM | > 50 µM | > 50 µM | > 100 µM | > 100 µM
11 | CCC(C)n1ncn(-c2ccc(N3CCN(c4ccc(OC[C@@H]5CO[C@@](Cn6nccn6)(c6ccc(Cl)c(Cl)c6)O5)cc4)CC3)cc2)c1=O (stereo partly shown) [Compound 36] | 5 to 30 µM | > 50 µM | > 50 µM | > 100 µM | > 100 µM
12 | CCC(C)n1ncn(-c2ccc(N3CCN(c4ccc(OC[C@@H]5CO[C@@](Cn6nccn6)(c6ccccc6C)O5)cc4)CC3)cc2)c1=O (stereo partly shown) [Compound 41] | 0.5 to 5 µM | > 50 µM | > 50 µM | > 100 µM | > 100 µM
13 | CCC(C)n1ncn(-c2ccc(N3CCN(c4ccc(OC[C@@H]5CO[C@@](Cn6nccn6)(c6ccc(Cl)cc6Cl)O5)c(F)c4)CC3)cc2)c1=O (stereo partly shown) [Compound 49] | 0.5 to 5 µM | > 50 µM | > 50 µM | > 100 µM | > 100 µM
14 | CCC(C)n1ncn(-c2ccc(N3CCN(c4ccc(OC[C@@H]5CO[C@@](Cn6nccn6)(c6ccc(Cl)cc6Cl)O5)cc4F)CC3)cc2)c1=O (stereo partly shown) [Compound 54] | < 0.5 µM | > 50 µM | > 50 µM | > 100 µM | > 100 µM
15 | CCC(C)n1ncn(-c2ccc(N3CCN(c4ccc(OC[C@@H]5CO[C@@](Cn6nccn6)(c6ccccc6C#N)O5)cc4)CC3)cc2)c1=O (stereo partly shown) [Compound 74] | 0.5 to 5 µM | > 50 µM | > 50 µM |  | 
16 | CCC(C)n1ncn(-c2ccc(N3CCN(c4ccc(OC[C@@H]5CO[C@@](Cn6nccn6)(c6ccc(Cl)cc6Cl)O5)c(C#N)c4)CC3)cc2)c1=O (stereo partly shown) [Compound 79] | 0.5 to 5 µM | > 50 µM | > 50 µM | > 100 µM | > 100 µM
17 | CCC(C)n1ncn(-c2ccc(N3CCN(c4ccc(OC[C@@H]5CO[C@@](Cc6ccnnc6)(c6ccccc6)O5)cc4)CC3)cc2)c1=O (stereo partly shown) [Compound 84] | 0.5 to 5 µM | 1.77 µM | 2.55 µM and 2.35 µM | > 100 µM | > 100 µM
18 | CCC(C)n1ncn(-c2ccc(N3CCN(c4ccc(OC[C@@H]5CO[C@@](Cn6nccn6)(C6CCC6)O5)cc4)CC3)cc2)c1=O (stereo partly shown) [Compound 88] | 0.5 to 5 µM |  |  |  | 
19 | CCC(C)n1ncn(-c2ccc(N3CCN(c4ccc(OC[C@@H]5CO[C@@](Cn6nccn6)(C(C)C)O5)cc4)CC3)cc2)c1=O (stereo partly shown) [Compound 90] | 5 to 30 µM |  |  |  | 
20 | CCC(C)n1ncn(-c2ccc(N3CCN(c4ccc(OC[C@@H]5CO[C@@](Cn6nccn6)(C6CCOCC6)O5)cc4)CC3)cc2)c1=O (stereo partly shown) [Compound 92] | 5 to 30 µM |  |  |  | 
21 | CCC(C)n1ncn(-c2ccc(N3CCN(c4ccc(OC[C@@H]5CO[C@@](Cn6nccn6)(C6CCNCC6)O5)cc4)CC3)cc2)c1=O (stereo partly shown) [Compound 93] | 5 to 30 µM |  |  |  | 
22 | CCC(C)n1ncn(-c2ccc(N3CCN(c4ccc(OC[C@@H]5CO[C@@](CCn6cncn6)(c6ccc(Cl)cc6Cl)O5)cc4)CC3)cc2)c1=O (stereo partly shown) [Compound 100] | < 0.5 µM | 0.545 µM | 0.372 µM | 0.781 µM (≈ 0.562 µg/mL) | 1.56 µM (≈ 1.12 µg/mL)
23 | CCC(C)n1ncn(-c2ccc(N3CCN(c4ccc(OC[C@@H]5CO[C@@](CCCn6cncn6)(c6ccc(Cl)cc6Cl)O5)cc4)CC3)cc2)c1=O (stereo partly shown) [Compound 101] | 5 to 30 µM |  |  | > 100 µM | > 100 µM
